Measured values taken from ChEMBL document CHEMBL3046794, “Synthesis and blood glucose lowering activity of some novel benzenesulfonylurea derivatives substituted with 6-aryl-4,5-dihyropyridazin-3(2H)-ones” (2012).
Active and inactive are the calls of the source. The rule behind the calls is not given here.

Assays:
[1] = system: Rattus norvegicus; assay: Antidiabetic activity in Rattus norvegicus albino (rat) assessed as inhibition in rise of blood glucose level at 20 mg/kg, po administered 30 min prior to glucose challenge measured post 60 min of challenge by oral glucose tolerance test relative to control; format: functional
[2] = system: Rattus norvegicus; assay: Antidiabetic activity in overnight fastedRattus norvegicus albino (rat) assessed as reduction in blood glucose level at 20 mg/kg, po measured after 60 min by oral glucose tolerance test relative to control (reference value: 78.0 +/- 1.167 mg/dl); format: functional

| Structure (SMILES) | inhibition in vivo at 20 mg/kg [1] [%] | Activity [2] [mg/dL] | inhibition [1] |
| --- | --- | --- | --- |
| Cc1ccc(S(=O)(=O)NC(=O)NN2CC3CCCC3C2)cc1 (stereo not drawn) [GLICLAZIDE] | 61.4 | 58.2 | – |
| Cc1ccc(C2=NN(c3ccc(S(=O)(=O)NC(=O)NCc4ccccc4)cc3)C(=O)CC2)cc1 | – | – | inactive |
| Cc1ccc(C2=NN(c3ccc(S(=O)(=O)NC(=O)NCc4ccccc4)cc3)C(=O)CC2)c(C)c1 | 6.5 | – | – |
| CCc1ccc(C2=NN(c3ccc(S(=O)(=O)NC(=O)NCc4ccccc4)cc3)C(=O)CC2)cc1 | 86.9 | 62 | – |
| COc1ccc(C2=NN(c3ccc(S(=O)(=O)NC(=O)NCc4ccccc4)cc3)C(=O)CC2)cc1 | 41.4 | – | – |
| O=C(NCc1ccccc1)NS(=O)(=O)c1ccc(N2N=C(c3ccc(Oc4ccccc4)cc3)CCC2=O)cc1 | – | – | inactive |
